Experiments:
CYP3A4/5 = test: Antibody studies: inhibition of nemorubicin metabolism by human liver microsomes; type: in vitro ADME; settings: nemorubicin 20 μM, NADPH 0.5 mM, 10 min at 37° C.
Protocol: Human liver microsomes were preincubated at 25° C. for 5 min. with and without a monoclonal antibody anti-CYP3A4/5 (MAB-3A4 Genetest) in Tris 0.3M (pH 7.4) before adding nemorubicin (20 μM and NADPH (0.5 mM). After 10 min at 37° C., the amount of nemorubicin metabolites was evaluated by a HPLC system.
(§1) High-performance liqid chromatographic (HPLC) system consisted of a Waters Model 510 isocratic pump equipped with autosampler. Detection was performed by a Perkin Elmer fluorescence spectrofotometer LS-5 set at 479 and 552 nm excitation and emission wavelength, respectively. Detector was connected to a Shimadzu C-R3A integrator. The cromatographic separation was performed on a Waters Simmetry C8 reverse phase column. The mobile phase was 10 mM KH2P4/Methanol/CH3CN (45:30:25). The flow rate was 1.5 ml/min. Standard curves of fluorescence versus drug concentration for nemorubicin and metabolites were used to calculate drug concentration in the samples.

CYP3A4 = target: T1, CYP3A4 (Homo sapiens, UniProt P08684); test: Metabolic potential of microsomes from cells expressing single human CYP 450 isoenzymes; type: in vitro ADME; settings: 50 pmol CYP/ml, nemorubicin 20 μM, NADPH 0.5 mM, 37° C., 20 min; CYP3A4, CYP3A5, CYP1A2, CYP2E1, CYP2D61, CYP2C91, CYP2C8
T1 construct: expressed in transfected cells
T1 sequence (P08684 whole entry): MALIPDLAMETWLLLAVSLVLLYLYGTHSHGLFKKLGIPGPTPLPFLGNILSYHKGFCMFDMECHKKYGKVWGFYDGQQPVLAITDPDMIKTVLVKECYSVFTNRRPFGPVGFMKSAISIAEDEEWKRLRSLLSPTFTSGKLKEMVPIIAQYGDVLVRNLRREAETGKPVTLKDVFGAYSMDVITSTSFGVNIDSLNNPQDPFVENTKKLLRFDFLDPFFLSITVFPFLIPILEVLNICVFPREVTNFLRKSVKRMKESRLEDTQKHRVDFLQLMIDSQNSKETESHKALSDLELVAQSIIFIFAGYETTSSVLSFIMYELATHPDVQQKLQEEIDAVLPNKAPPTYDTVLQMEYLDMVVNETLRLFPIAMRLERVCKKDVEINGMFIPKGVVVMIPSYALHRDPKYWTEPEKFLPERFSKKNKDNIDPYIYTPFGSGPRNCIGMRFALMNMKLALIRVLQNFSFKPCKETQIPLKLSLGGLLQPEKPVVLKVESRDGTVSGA
Protocol: Microsomes were obtained from cell cultures overexpressing CYP3A4, CYP3A5, CYP1A2, CYP2E1, CYP2D61, CYP2C91 and CYP2C8. Microsomes (50 pmol CYP/ml) were incubated with nemomubicin (20 μM) and NADPH (0.5 mM) in 0.3M Tris (pH 7.4) at 37° C. for 20 min. Nemorubicin metabolism was quantified by HPLC method.
as §1

COc1cccc2c1C(=O)c1c(O)c3c(c(O)c1C2=O)C[C@@](O)(C(=O)CO)C[C@@H]3O[C@H]1C[C@H](N2CCO[C@H](OC)C2)[C@H](O)[C@H](C)O1 [nemorubicin]
isoenzyme responsible for nemorubicin metabolism (antibody inhibition) (CYP3A4/5): only the CYP3A4 isoenzyme is responsible for the metabolism of nemorubicin
metabolism of nemorubicin by microsomes overexpressing single CYP isoenzymes (CYP3A4): Only microsomes from CYP3A4-overexpressing cells were able to metabolize nemorubicin

Source: US20060183168A1, “Method for optimizing therapeutic efficacy of nemorubicin” (priority 2002, published 2006)
